Usually EC50 stands for the concentration at which the effect is half-maximal. Read a low EC50 as higher potency in that assay.

Experiment [1] relates to influenza A virus minigenome (PB2, PB1, PA, NP; luciferase reporter) in 293T cells, RNP_Alaska. Kind of experiment: microbe, parasite or virus in culture. Particulars: HEK-293T, 48 h. Type of experiment: cell-based.
The test system of experiment [2] is influenza A virus minigenome (PB2, PB1, PA, NP; luciferase reporter) in 293T cells, RNP_Hubei. Nature of the experiment: microbe, parasite or virus in culture. The settings on record: HEK-293T, 48 h. Type of experiment: cell-based.

Take `CC(C)(C)C(=O)OCOc1c2n(ncc1=O)[C@@H]([C@H](c1cccc(F)c1)c1cccc(F)c1F)[C@H]1CCCN1C2=O` [Example 109, (((9aR,10S)-10-((R)-(2,3-difluorophenyl)(3-fluorophenyl)methyl)-3,5-dioxo-3,5,8,9,9a,10-hexahydro-7H-pyrrolo[1′,2′:4,5]pyrazino[1,2-b]pyridazin-4-yl)oxy)methyl pivalate]: the half-maximal effective concentration (EC50) in experiment [1] and in experiment [2] was under 0.1 µM throughout.
As to `CC(C)(C)C(=O)Oc1c2n(ncc1=O)[C@@H]([C@H](c1cccc(F)c1)c1cccc(F)c1F)[C@H]1CCCN1C2=O` [Example 111, (9aR,10S)-10-((R)-(2,3-difluorophenyl)(3-fluorophenyl)methyl)-3,5-dioxo-3,5,8,9,9a,10-hexahydro-7H-pyrrolo[1′,2′:4,5]pyrazino[1,2-b]pyridazin-4-yl pivalate], the concentration for a half-maximal effect (EC50) in experiment [1] and in experiment [2] was under 0.1 µM in each case.
As for `CCN(C)C(=O)Oc1c2n(ncc1=O)[C@@H]([C@H](c1ccccc1)c1cccc(F)c1F)[C@H]1CCCN1C2=O` [Example 47, (9aR,10S)-10-((R)-(2,3-difluorophenyl)(phenyl)methyl)-3,5-dioxo-3,5,8,9,9a,10-hexahydro-7H-pyrrolo[1′,2′:4,5]pyrazino[1,2-b]pyridazin-4-yl ethyl(methyl)carbamate], the EC50 in experiment [1] and in experiment [2] was at least 1 µM each time.
As for `COc1c2n(ncc1=O)[C@@H]([C@H](c1ccc(F)cc1)c1cccc(F)c1F)[C@H]1CCCN1C2=O` [Example 81, (9aR,10S)-10-((R)-(2,3-difluorophenyl)(4-fluorophenyl)methyl)-4-methoxy-8,9,9a,10-tetrahydro-7H-pyrrolo[1′,2′:4,5]pyrazino[1,2-b]pyridazine-3,5-dione], the half-maximal effective concentration (EC50) in experiment [1] and in experiment [2] was at least 1 µM each time.
Turning to `CN(C)C(=O)OCOc1c2n(ncc1=O)[C@@H]([C@H](c1cccc(F)c1)c1cccc(F)c1F)[C@H]1CCCN1C2=O` [Example 101, (((9aR,10S)-10-((R)-(2,3-difluorophenyl)(3-fluorophenyl)methyl)-3,5-dioxo-3,5,8,9,9a,10-hexahydro-7H-pyrrolo[1′,2′:4,5]pyrazino[1,2-b]pyridazin-4-yl)oxy)methyl dimethylcarbamate], the EC50 is at least 1 µM in experiment [1] and 0.1 to 1 µM in experiment [2].
For `CC(C)OC(=O)Oc1c2n(ncc1=O)[C@@H]([C@H](c1cccc(F)c1)c1cccc(F)c1F)[C@H]1CCCN1C2=O` [Example 103, (9aR,10S)-10-((R)-(2,3-difluorophenyl)(3-fluorophenyl)methyl)-3,5-dioxo-3,5,8,9,9a,10-hexahydro-7H-pyrrolo[1′,2′:4,5]pyrazino[1,2-b]pyridazin-4-yl isopropyl carbonate], in that order: under 0.1 µM and under 0.1 µM.
Consider `COCCOC(=O)OCOc1c2n(ncc1=O)[C@@H]([C@H](c1ccccc1)c1cccc(F)c1F)[C@H]1CCCN1C2=O` [Example 46, (((9aR,10S)-10-((R)-(2,3-difluorophenyl)(phenyl)methyl)-3,5-dioxo-3,5,8,9,9a,10-hexahydro-7H-pyrrolo[1′,2′:4,5]pyrazino[1,2-b]pyridazin-4-yl)oxy)methyl (2-methoxyethyl) carbonate], for which the half-maximal effective concentration (EC50) in experiment [1] and in experiment [2] was at least 1 µM each time.
Turning to `O=C(Oc1c2n(ncc1=O)[C@@H]([C@H](c1ccccc1)c1cccc(F)c1F)[C@H]1CCCN1C2=O)N1CCOCC1` [Example 66, (9aR,10S)-10-((R)-(2,3-difluorophenyl)(phenyl)methyl)-3,5-dioxo-3,5,8,9,9a,10-hexahydro-7H-pyrrolo[1′,2′:4,5]pyrazino[1,2-b]pyridazin-4-yl morpholine-4-carboxylate], the 50% effective concentration (EC50) in experiment [1] and in experiment [2] was at least 1 µM throughout.
In the case of `COc1c2n(ncc1=O)[C@@H]([C@H](c1ccccc1)c1cccc(F)c1F)[C@H]1CCCN1C2=O` [Example 38, (9aR,10S)-10-((R)-(2,3-difluorophenyl)(phenyl)methyl)-4-methoxy-8,9,9a,10-tetrahydro-7H-pyrrolo[1′,2′:4,5]pyrazino[1,2-b]pyridazine-3,5-dione], the EC50 in experiment [1] and in experiment [2] was at least 1 µM in each case.
With `COC(C)(C)C(=O)OCOc1c2n(ncc1=O)[C@@H]([C@H](c1ccccc1)c1cccc(F)c1F)[C@H]1CCCN1C2=O` [Example 41, (((9aR,10S)-10-((R)-(2,3-difluorophenyl)(phenyl)methyl)-3,5-dioxo-3,5,8,9,9a,10-hexahydro-7H-pyrrolo[1′,2′:4,5]pyrazino[1,2-b]pyridazin-4-yl)oxy)methyl 2-methoxy-2-methylpropanoate], the EC50 in experiment [1] and in experiment [2] was under 0.1 µM each time.
With `CC(C)(C)OC(=O)OCOc1c2n(ncc1=O)[C@@H]([C@H](c1ccc(F)cc1)c1cccc(F)c1F)[C@H]1CCCN1C2=O` [Example 91, tert-butyl ((((9aR,10S)-10-((R)-(2,3-difluorophenyl)(4-fluorophenyl)methyl)-3,5-dioxo-3,5,8,9,9a,10-hexahydro-7H-pyrrolo[1′,2′:4,5]pyrazino[1,2-b]pyridazin-4-yl)oxy)methyl) carbonate], the EC50 in experiment [1] and in experiment [2] was under 0.1 µM each time.
Turning to `CC(C)OC(=O)OCOc1c2n(ncc1=O)[C@@H]([C@H](c1ccc(F)cc1)c1cccc(F)c1F)[C@H]1CCCN1C2=O` [Example 89, (((9aR,10S)-10-((R)-(2,3-difluorophenyl)(4-fluorophenyl)methyl)-3,5-dioxo-3,5,8,9,9a,10-hexahydro-7H-pyrrolo[1′,2′:4,5]pyrazino[1,2-b]pyridazin-4-yl)oxy)methyl isopropyl carbonate], the half-maximal effective concentration (EC50) in experiment [1] and in experiment [2] was under 0.1 µM throughout.
Regarding `COCCC(=O)OCOc1c2n(ncc1=O)[C@@H]([C@H](c1ccccc1)c1cccc(F)c1F)[C@H]1CCCN1C2=O` [Example 64, (((9aR,10S)-10-((R)-(2,3-difluorophenyl)(phenyl)methyl)-3,5-dioxo-3,5,8,9,9a,10-hexahydro-7H-pyrrolo[1′,2′:4,5]pyrazino[1,2-b]pyridazin-4-yl)oxy)methyl 3-methoxypropanoate], the EC50 in experiment [1] and in experiment [2] was at least 1 µM each time.
In the case of `COC(C)(C)C(=O)Oc1c2n(ncc1=O)[C@@H]([C@H](c1ccc(F)cc1)c1cccc(F)c1F)[C@H]1CCCN1C2=O` [Example 90, (9aR,10S)-10-((R)-(2,3-difluorophenyl)(4-fluorophenyl)methyl)-3,5-dioxo-3,5,8,9,9a,10-hexahydro-7H-pyrrolo[1′,2′:4,5]pyrazino[1,2-b]pyridazin-4-yl 2-methoxy-2-methylpropanoate], the EC50 in experiment [1] and in experiment [2] was under 0.1 µM throughout.
`COC(=O)Oc1c2n(ncc1=O)[C@@H]([C@H](c1ccccc1)c1cccc(F)c1F)[C@H]1CCCN1C2=O` [Example 54, (9aR,10S)-10-((R)-(2,3-difluorophenyl)(phenyl)methyl)-3,5-dioxo-3,5,8,9,9a,10-hexahydro-7H-pyrrolo[1′,2′:4,5]pyrazino[1,2-b]pyridazin-4-yl methyl carbonate]: the EC50 in experiment [1] and in experiment [2] was under 0.1 µM throughout.
As to `CN(C)C(=O)Oc1c2n(ncc1=O)[C@@H]([C@H](c1ccc(F)cc1)c1cccc(F)c1F)[C@H]1CCCN1C2=O` [Example 87, (9aR,10S)-10-((R)-(2,3-difluorophenyl)(4-fluorophenyl)methyl)-3,5-dioxo-3,5,8,9,9a,10-hexahydro-7H-pyrrolo[1′,2′:4,5]pyrazino[1,2-b]pyridazin-4-yl dimethylcarbamate], the EC50 in experiment [1] and in experiment [2] was at least 1 µM in each case.

Values taken from patent US12071441B2, “10-(di(phenyl)methyl)-4-hydroxy-8,9,9A,10-tetrahydro-7H-pyrrolo[1′,2′:4,5]pyrazino[1,2-b]pyridazine-3,5-dione derivatives and related compounds as inhibitors of the orthomyxovirus replication for treating influenza” (Novartis AG, priority 2018, dated 2024).
